Assay results published in patent US20160355530A1, “HEPATITIS C INHIBITORS AND USES THEREOF” (AbbVie Inc., priority 2010, published 2016).
Like-named read-outs stand apart in the source and are kept apart here.

How the values were obtained:
[1] = target: T1, HCV NS5B polymerase 1a-H77 (Hepatitis C virus genotype 1a, UniProt P27958); assay: biochemical; set-up: species or system HCV genotype 1a; settings: enzyme, strain 1a H77; read-out: HCV Polymerase Strain 1a H77 IC50
T1 construct: six-histidine tag; made in house; host or cells: E. coli
T1 sequence (P27958 2421-2990): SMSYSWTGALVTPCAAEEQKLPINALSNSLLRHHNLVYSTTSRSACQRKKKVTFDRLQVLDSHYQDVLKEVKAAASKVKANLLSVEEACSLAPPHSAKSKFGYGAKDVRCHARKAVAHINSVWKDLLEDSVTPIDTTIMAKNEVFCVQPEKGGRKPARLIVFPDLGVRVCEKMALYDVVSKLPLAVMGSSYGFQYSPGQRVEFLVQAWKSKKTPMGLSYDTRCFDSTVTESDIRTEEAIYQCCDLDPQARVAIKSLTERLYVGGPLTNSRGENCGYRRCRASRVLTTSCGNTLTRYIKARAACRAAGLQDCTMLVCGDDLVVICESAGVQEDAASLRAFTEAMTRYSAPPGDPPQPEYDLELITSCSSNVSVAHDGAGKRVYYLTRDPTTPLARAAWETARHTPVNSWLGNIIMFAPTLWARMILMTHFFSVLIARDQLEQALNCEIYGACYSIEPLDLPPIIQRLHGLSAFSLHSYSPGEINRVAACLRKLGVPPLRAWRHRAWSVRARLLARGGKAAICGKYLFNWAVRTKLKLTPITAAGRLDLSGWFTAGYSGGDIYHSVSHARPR
How it was run: (§1)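 Incorporation of [3H]UTP (0.284 μM), alongside 20 μM each CTP and ATP, into RNA copied from a 5 nM 2.1 kb genotype 1b negative-strand template was measured after 3 h at 30° C using purified His-tagged NS5B truncated at residue 570. Product was spermine-precipitated, filtered and scintillation-counted; nonlinear regression gave IC50.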

[2] = target: T2, HCV NS5B polymerase 1a-H77-C316Y (Hepatitis C virus genotype 1a, UniProt P27958, C2736Y); assay: biochemical; set-up: species or system HCV genotype 1a
T2 construct: six-histidine tag; made in house; host or cells: E. coli
T2 sequence (P27958 2421-2990 C2736Y): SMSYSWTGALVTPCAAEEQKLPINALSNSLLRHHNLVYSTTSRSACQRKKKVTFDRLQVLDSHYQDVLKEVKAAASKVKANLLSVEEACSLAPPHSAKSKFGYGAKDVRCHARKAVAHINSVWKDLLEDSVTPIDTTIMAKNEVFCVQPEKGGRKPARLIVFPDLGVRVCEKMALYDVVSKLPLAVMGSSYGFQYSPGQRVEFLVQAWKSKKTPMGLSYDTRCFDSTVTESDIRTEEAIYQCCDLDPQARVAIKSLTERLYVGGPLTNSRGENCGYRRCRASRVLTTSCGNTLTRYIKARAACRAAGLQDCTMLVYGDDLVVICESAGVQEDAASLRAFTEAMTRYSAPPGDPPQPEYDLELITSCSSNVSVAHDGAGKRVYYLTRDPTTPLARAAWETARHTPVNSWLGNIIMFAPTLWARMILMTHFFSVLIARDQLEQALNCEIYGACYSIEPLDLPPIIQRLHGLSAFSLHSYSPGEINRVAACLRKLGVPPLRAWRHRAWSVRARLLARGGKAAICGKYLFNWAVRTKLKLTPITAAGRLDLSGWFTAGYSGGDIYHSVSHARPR
How it was run: as §1

[3] = system: HCV NS5B polymerase 1a-H77-C316Y; assay: biochemical; set-up: species or system HCV genotype 1a; settings: ratio of enzyme IC50s, 1a H77-C316Y / 1a H77
How it was run: as §1

[4] = target: T3, HCV NS5B polymerase 1b BK strain (Hepatitis C virus genotype 1b, UniProt P26663); assay: HCV NS5B polymerase enzymatic inhibition assay, strain 1b BK; assay type: biochemical; settings: enzyme, strain 1b BK; read-out: HCV Polymerase Strain 1b BK IC50
T3 construct: six-histidine tag; made in house; host or cells: E. coli
T3 sequence (P26663 2420-2989): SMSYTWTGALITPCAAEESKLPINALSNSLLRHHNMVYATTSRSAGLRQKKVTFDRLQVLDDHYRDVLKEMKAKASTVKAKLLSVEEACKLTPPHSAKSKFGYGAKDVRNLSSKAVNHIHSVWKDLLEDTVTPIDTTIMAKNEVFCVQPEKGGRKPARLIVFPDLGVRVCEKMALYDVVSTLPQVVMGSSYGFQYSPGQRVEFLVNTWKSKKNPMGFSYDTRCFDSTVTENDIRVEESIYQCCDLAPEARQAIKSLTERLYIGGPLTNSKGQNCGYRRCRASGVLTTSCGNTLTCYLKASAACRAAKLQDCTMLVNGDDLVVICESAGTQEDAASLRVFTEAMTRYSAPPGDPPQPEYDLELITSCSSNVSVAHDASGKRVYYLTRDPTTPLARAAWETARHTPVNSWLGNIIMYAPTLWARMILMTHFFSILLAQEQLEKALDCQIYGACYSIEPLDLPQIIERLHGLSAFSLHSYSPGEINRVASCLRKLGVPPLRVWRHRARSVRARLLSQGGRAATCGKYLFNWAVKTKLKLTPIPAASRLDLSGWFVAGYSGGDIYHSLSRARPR
How it was run: as §1

[5] = system: HCV 1a-H77 subgenomic replicon; assay: microbe, parasite or virus in culture; assay type: cell-based, HCV genotype 1a; settings: Hepatitis C virus, stable replicon
[6] = system: HCV 1b-BB7 subgenomic replicon; assay: microbe, parasite or virus in culture; assay type: cell-based, HCV genotype 1b; settings: Hepatitis C virus, stable replicon
[7] = system: chimeric replicon with 2a-J6CF-derived NS5B; assay: microbe, parasite or virus in culture; assay type: cell-based, HCV genotype 2a; settings: Hepatitis C virus, read-out: 2a chimera 5% FBS EC50
[8] = system: chimeric replicon with genotype 2b NS5B; assay: microbe, parasite or virus in culture; assay type: cell-based, HCV genotype 2b; settings: Hepatitis C virus, read-out: 2b chimera 5% FBS EC50
[9] = system: chimeric replicon with genotype 3a NS5B; assay: microbe, parasite or virus in culture; assay type: cell-based, HCV genotype 3a; settings: Hepatitis C virus, read-out: 3a chimera 5% FBS EC50
[10] = system: chimeric replicon with genotype 4a NS5B; assay: microbe, parasite or virus in culture; assay type: cell-based, HCV genotype 4a; settings: Hepatitis C virus, read-out: 4a chimera 5% FBS EC50
[11] = 5% FBS, absence of human plasma, read-out: Stable Replicon 1a H77 5% FBS EC50
[12] = strain 1a H77, 5% FBS + 40% human plasma, read-out: 1a H77 5% FBS + 40% Human Plasma EC50
[13] = strain 1a H77, 5% FBS, no human plasma, read-out: 1a H77 5% FBS EC50
[14] = strain 1a H77, 5% FBS, read-out: 1a H77 5% FBS EC50
[15] = strain 1b BB7, 5% FBS + 40% human plasma, read-out: 1b BB7 5% FBS + 40% Human Plasma EC50
[16] = strain 1b BB7, 5% FBS, no human plasma, read-out: 1b BB7 5% FBS EC50
[17] = strain 1b BB7, 5% FBS, read-out: 1b BB7 5% FBS EC50

SMILES: CCN(CC)CCCN(c1cc2oc(-c3ccc(F)cc3)c(C3=NOCCN3)c2cc1C1CC1)S(C)(=O)=O [Example 131, N-[5-cyclopropyl-3-(5,6-dihydro-4H-1,2,4-oxadiazin-3-yl)-2-(4-fluorophenyl)-1-benzofuran-6-yl]-N-[3-(diethylamino)propyl]methanesulfonamide]
- IC50 [1]: 0.0302 µM
- IC50 [2]: 0.876 µM
- C316Y/1a Fold Resistance [3]: 29 fold
- IC50 [4]: 0.171 µM
- EC50 [5, 11]: 0.122 µM
- EC50 [5, 12]: 0.35 µM
- EC50 [5, 13]: 0.122 µM
- EC50 [5, 14]: 0.122 µM
- EC50 [6, 15]: 0.102 µM
- EC50 [6, 16]: 0.026 µM
- EC50 [6, 17]: 0.026 µM
- EC50 [7]: 0.38 µM
- EC50 [8]: 0.446 µM
- EC50 [9]: 0.131 µM
- EC50 [10]: 0.782 µM

SMILES: CS(=O)(=O)N(CCCN1CCCC1)c1cc2oc(-c3ccc(F)cc3)c(C3=NOCCN3)c2cc1C1CC1 [Example 132, N-[5-cyclopropyl-3-(5,6-dihydro-4H-1,2,4-oxadiazin-3-yl)-2-(4-fluorophenyl)-1-benzofuran-6-yl]-N-[3-(pyrrolidin-1-yl)propyl]methanesulfonamide]
- IC50 [1]: 0.022 µM
- IC50 [2]: 0.934 µM
- C316Y/1a Fold Resistance [3]: 42 fold
- IC50 [4]: 0.246 µM
- EC50 [5, 11]: 0.142 µM
- EC50 [5, 12]: 0.313 µM
- EC50 [5, 13]: 0.142 µM
- EC50 [5, 14]: 0.142 µM
- EC50 [6, 15]: 0.122 µM
- EC50 [6, 16]: 0.04 µM
- EC50 [6, 17]: 0.04 µM
- EC50 [7]: 0.244 µM
- EC50 [8]: 0.428 µM
- EC50 [9]: 0.093 µM
- EC50 [10]: > 1 µM

SMILES: CS(=O)(=O)N(CCCC#N)c1cc2oc(-c3ccc(F)cc3)c(C3=NOCCN3)c2cc1C1CC1 [Example 133, N-(3-cyanopropyl)-N-[5-cyclopropyl-3-(5,6-dihydro-4H-1,2,4-oxadiazin-3-yl)-2-(4-fluorophenyl)-1-benzofuran-6-yl]methanesulfonamide]
- IC50 [1]: 0.008 µM
- IC50 [2]: 0.05 µM
- C316Y/1a Fold Resistance [3]: 6 fold
- IC50 [4]: 0.046 µM
- EC50 [5, 11]: 0.0063 µM
- EC50 [5, 12]: 0.037 µM
- EC50 [5, 13]: 0.0063 µM
- EC50 [5, 14]: 0.00632 µM
- EC50 [6, 15]: 0.055 µM
- EC50 [6, 16]: 0.006 µM
- EC50 [6, 17]: 0.006 µM
- EC50 [7]: 0.092 µM
- EC50 [8]: 0.082 µM
- EC50 [9]: 0.011 µM
- EC50 [10]: 0.075 µM

SMILES: CS(=O)(=O)N(CCCCCO)c1cc2oc(-c3ccc(F)cc3)c(C3=NOCCN3)c2cc1C1CC1 [Example 134, N-[5-cyclopropyl-3-(5,6-dihydro-4H-1,2,4-oxadiazin-3-yl)-2-(4-fluorophenyl)-1-benzofuran-6-yl]-N-(5-hydroxypentyl)methanesulfonamide]
- IC50 [1]: 0.008 µM
- IC50 [2]: 0.042 µM
- C316Y/1a Fold Resistance [3]: 5 fold
- IC50 [4]: 0.082 µM
- EC50 [5, 11]: 0.0065 µM
- EC50 [5, 12]: 0.069 µM
- EC50 [5, 13]: 0.0065 µM
- EC50 [5, 14]: 0.00648 µM
- EC50 [6, 15]: 0.093 µM
- EC50 [6, 16]: 0.009 µM
- EC50 [6, 17]: 0.009 µM
- EC50 [7]: 0.084 µM
- EC50 [8]: 0.069 µM
- EC50 [9]: 0.02 µM
- EC50 [10]: 0.053 µM

SMILES: C[S+]([O-])CCN(c1cc2oc(-c3ccc(F)cc3)c(C3=NOCCN3)c2cc1C1CC1)S(C)(=O)=O (stereo not drawn) [Example 138, N-[5-cyclopropyl-3-(5,6-dihydro-4H-1,2,4-oxadiazin-3-yl)-2-(4-fluorophenyl)-1-benzofuran-6-yl]-N-[2-(methylsulfinyl)ethyl]methanesulfonamide]
- IC50 [1]: 0.0098 µM
- IC50 [2]: 0.232 µM
- C316Y/1a Fold Resistance [3]: 24 fold
- IC50 [4]: 0.049 µM
- EC50 [5, 11]: 0.0465 µM
- EC50 [5, 12]: 0.183 µM
- EC50 [5, 13]: 0.0465 µM
- EC50 [5, 14]: 0.0465 µM
- EC50 [6, 15]: 0.27 µM
- EC50 [6, 16]: 0.036 µM
- EC50 [6, 17]: 0.036 µM
- EC50 [7]: 1 µM
- EC50 [8]: 1 µM
- EC50 [9]: 0.102 µM
- EC50 [10]: 0.524 µM
